Test results from patent US9187437B2, “Substituted oxadiazole compounds” (BRISTOL-MYERS SQUIBB COMPANY, priority 2010, dated 2015).

Assays:
S1P1 [1] = target: T1, S1P1 (Homo sapiens (Human), UniProt P21453); assay: S1P1 Binding Assay (33P-S1P radioligand competition, membranes from CHO cells); conditions: membranes from CHO cells expressing human S1P1; 0.03 nM 33P-S1P; rounded to two significant digits
Experimental: Membranes were prepared from CHO cells expressing human S1P1. Cells pellets (1×10^8 cells/pellet) were suspended in buffer containing 20 mM HEPES, pH 7.5, 50 mM NaCl, 2 mM EDTA and Protease Inhibitor cocktail (Roche), and disrupted on ice using the Polytron homogenizer. The homogenate was centrifuged at 20,000 rpm (48,000 g) and the supernatant was discarded. The membrane pellets were resuspended in buffer containing 50 mM HEPES, pH 7.5, 100 mM NaCl, 1 mM MgCl2, 2 mM EDTA and stored in aliquots at −80° C. after protein concentration determination.
The IC50 is defined as the concentration of competing ligand needed to reduce specific binding by 50%.

S1P1 [2] = target: T1, S1P1; assay: Receptor [35S] GTPγS Binding Assay, S1P1/CHO cell membranes; assay type: biochemical; conditions: membranes from S1P1/CHO cells; rounded to two significant digits
Experimental: (§1) Receptor [35S] GTPγS Binding Assays
(§2) Compounds were loaded in a 384 Falcon v-bottom plate (0.5 μl/well in a 11 point, 3-fold dilution). Membranes prepared from S1P1/CHO cells or EDG3-Ga15-bla HEK293T cells were added to the compound plate (40 μl/well, final protein 3 μg/well) with MULTIDROP®. [^35S]GTP (1250 Ci/mmol, Perkin Elmer) was diluted in assay buffer: 20 mM HEPES, pH7.5, 10 mM MgCl2, 150 mM NaCl, 1 mM EGTA, 1 mM DTT, 10 μM GDP, 0.1% fatty acid free BSA, and 10 μg/ml Saponin to 0.4 nM. 40 μl of the [^35S] GTP solution was added to the compound plate with a final concentration of 0.2 nM. The reaction was kept at room temperature for 45 min. At the end of incubation, all the mixtures in the compound plate were transferred to Millipore 384-well FB filter plates via the VELOCITY11® Vprep liquid handler. The filter plate was washed with water 4 times by using the manifold Embla plate washer and dried at 60° C. for 45 min. MicroScint 20 scintillation fluid (30 μl) was added to each well for counting on the Packard TOPCOUNT®. EC50 is defined as the agonist concentration that corresponds to 50% of the Ymax (maximal response) obtained for each individual compound tested. The results in Table B were rounded to two significant digits.

S1P3 = S1P3 (Homo sapiens (Human), UniProt Q99500); assay: Receptor [35S] GTPγS Binding Assay, EDG3-Ga15-bla HEK293T cell membranes; assay type: biochemical; conditions: membranes from EDG3-Ga15-bla HEK293T cells; rounded to two significant digits
Experimental: as §1, §2

Sequence of S1P3 (Q99500 whole entry): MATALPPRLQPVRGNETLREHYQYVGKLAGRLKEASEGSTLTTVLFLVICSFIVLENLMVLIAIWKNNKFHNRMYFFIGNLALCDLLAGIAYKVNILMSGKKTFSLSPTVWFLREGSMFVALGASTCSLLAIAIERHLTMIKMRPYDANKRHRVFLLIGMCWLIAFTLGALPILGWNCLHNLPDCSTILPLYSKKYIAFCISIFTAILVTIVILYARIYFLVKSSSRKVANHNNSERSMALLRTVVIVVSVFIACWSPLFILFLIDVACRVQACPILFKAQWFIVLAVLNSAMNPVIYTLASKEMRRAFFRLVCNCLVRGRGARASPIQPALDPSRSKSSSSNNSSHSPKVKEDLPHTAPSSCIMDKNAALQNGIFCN
T1 sequence (P21453 whole entry): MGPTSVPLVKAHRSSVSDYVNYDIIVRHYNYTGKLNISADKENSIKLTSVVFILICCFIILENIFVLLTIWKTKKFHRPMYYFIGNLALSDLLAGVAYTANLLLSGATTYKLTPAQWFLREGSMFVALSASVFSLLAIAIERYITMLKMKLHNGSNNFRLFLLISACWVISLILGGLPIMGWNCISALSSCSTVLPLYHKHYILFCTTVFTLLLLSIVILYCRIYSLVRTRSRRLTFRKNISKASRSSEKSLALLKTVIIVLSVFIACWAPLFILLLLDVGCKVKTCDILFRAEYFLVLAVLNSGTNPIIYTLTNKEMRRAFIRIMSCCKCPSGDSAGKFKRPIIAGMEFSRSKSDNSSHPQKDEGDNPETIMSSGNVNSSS

Row | IC50 (S1P1 [1]) [nM] | EC50 (S1P1 [2]) [nM] | EC50 (S1P3) [nM] | SMILES
1 | 1300 |  |  | Cc1ccc(-c2noc(CCC3(c4cc(F)cc(F)c4)CCCCC3)n2)c(=O)[nH]1 [Example 1, 3-(5-(2-(1-(3,5-Difluorophenyl)cyclohexyl)ethyl)-1,2,4-oxadiazol-3-yl)-6-methyl-2(1H)-pyridinone]
2 | 13 |  |  | O=c1cc(-c2noc(CCC3(c4cc(F)cc(F)c4)CCCCC3)n2)cc[nH]1 [Example 2, 4-(5-(2-(1-(3,5-Difluorophenyl)cyclohexyl)ethyl)-1,2,4-oxadiazol-3-yl)-2(1H)-pyridinone]
3 |  | 280 | > 62000 | FC(F)(F)c1cc(-c2noc(CCC3(c4ccccc4)CCCCC3)n2)cc(C(F)(F)F)c1 [Example 4, 3-(3,5-bis(trifluoromethyl)phenyl)-5-(2-(1-phenylcyclohexyl)ethyl)-1,2,4-oxadiazole]
4 | 12 |  |  | Fc1ccc(-c2noc(CCC3(c4ccccc4)CCCCC3)n2)cc1 [Example 5, 3-(4-fluorophenyl)-5-(2-(1-phenylcyclohexyl)ethyl)-1,2,4-oxadiazole]
5 | 3.3 | 130 | 630 | c1ccc(-c2noc(CCC3(c4ccccc4)CCCCC3)n2)cc1 [Example 7, 3-phenyl-5-(2-(1-phenylcyclohexyl)ethyl)-1,2,4-oxadiazole]
6 | 33 | 710 | > 62000 | FC(F)(F)c1cccc(-c2noc(CCC3(c4ccccc4)CCCCC3)n2)c1 [Example 8, 5-(2-(1-phenylcyclohexyl)ethyl)-3-(3-(trifluoromethyl)phenyl)-1,2,4-oxadiazole]
7 |  | 530 | 2200 | Cc1cccc(-c2noc(CCC3(c4ccccc4)CCCCC3)n2)c1 [Example 9, 3-(3-methylphenyl)-5-(2-(1-phenylcyclohexyl)ethyl)-1,2,4-oxadiazole]
8 |  | 330 | 5900 | Fc1ccc(-c2noc(CCC3(c4ccccc4)CCCCC3)n2)cc1F [Example 12, 3-(3,4-difluorophenyl)-5-(2-(1-phenylcyclohexyl)ethyl)-1,2,4-oxadiazole]
9 | 210 |  |  | Fc1cc(-c2noc(CCC3(c4ccccc4)CCCCC3)n2)ccc1C(F)(F)F [Example 13, 3-(3-fluoro-4-(trifluoromethyl)phenyl)-5-(2-(1-phenylcyclohexyl)ethyl)-1,2,4-oxadiazole]
10 |  | 740 | 1200 | Clc1ccc(-c2noc(CCC3(c4ccccc4)CCCCC3)n2)c(Cl)c1 [Example 17, 3-(2,4-dichlorophenyl)-5-(2-(1-phenylcyclohexyl)ethyl)-1,2,4-oxadiazole]
11 |  | 2200 | 1700 | COc1cc(OC)cc(-c2noc(CCC3(c4ccccc4)CCCCC3)n2)c1 [Example 19, 3-(3,5-dimethoxyphenyl)-5-(2-(1-phenylcyclohexyl)ethyl)-1,2,4-oxadiazole]
12 | 410 |  |  | Fc1ccccc1COc1ccc(-c2noc(CCC3(c4ccccc4)CCCCC3)n2)cc1 [Example 20, 3-(4-((2-fluorobenzyl)oxy)phenyl)-5-(2-(1-phenylcyclohexyl)ethyl)-1,2,4-oxadiazole]
13 |  | 3200 | 1300 | Clc1ncn(Cc2cccc(-c3noc(CCC4(c5ccccc5)CCCCC4)n3)c2)c1Cl [Example 24, 3-(3-((4,5-dichloro-1H-imidazol-1-yl)methyl)phenyl)-5-(2-(1-phenylcyclohexyl)ethyl)-1,2,4-oxadiazole]
14 | 8.1 | 4900 | 16000 | COc1ccc(OC)c(-c2noc(CCC3(c4ccccc4)CCCCC3)n2)c1 [Example 26, 3-(2,5-dimethoxyphenyl)-5-(2-(1-phenylcyclohexyl)ethyl)-1,2,4-oxadiazole]
15 | 610 |  |  | Clc1ccc(COc2ccc(-c3noc(CCC4(c5ccccc5)CCCCC4)n3)cc2)cc1 [Example 27, 3-(4-((4-chlorobenzyl)oxy)phenyl)-5-(2-(1-phenylcyclohexyl)ethyl)-1,2,4-oxadiazole]
16 | 25 |  |  | Fc1ccc(-c2noc(CCC3(c4ccccc4)CCCCC3)n2)c(F)c1 [Example 28, 3-(2,4-difluorophenyl)-5-(2-(1-phenylcyclohexyl)ethyl)-1,2,4-oxadiazole]
17 |  | 36 | 430 | Nc1cc(-c2noc(CCC3(c4ccccc4)CCCCC3)n2)ccn1 [Example 29, 4-(5-(2-(1-phenylcyclohexyl)ethyl)-1,2,4-oxadiazol-3-yl)-2-pyridinamine]
18 | 97 |  |  | c1ccc(C2(CCc3nc(-c4ccccn4)no3)CCCCC2)cc1 [Example 30, 2-(5-(2-(1-phenylcyclohexyl)ethyl)-1,2,4-oxadiazol-3-yl)pyridine]
19 | 0.54 | 50 | 430 | Clc1cc(-c2noc(CCC3(c4ccccc4)CCCCC3)n2)ccn1 [Example 32, 2-chloro-4-(5-(2-(1-phenylcyclohexyl)ethyl)-1,2,4-oxadiazol-3-yl)pyridine]
20 | 1.9 | 67 | 550 | Nc1ncccc1-c1noc(CCC2(c3ccccc3)CCCCC2)n1 [Example 33, 3-(5-(2-(1-phenylcyclohexyl)ethyl)-1,2,4-oxadiazol-3-yl)-2-pyridinamine]
21 | 67 |  |  | [O-][n+]1ccc(-c2noc(CCC3(c4ccccc4)CCCCC3)n2)cc1 [Example 34, 4-(5-(2-(1-phenylcyclohexyl)ethyl)-1,2,4-oxadiazol-3-yl)pyridine 1-oxide]
22 |  | 100 | 2200 | c1ccc(C2(CCc3nc(-c4cccnc4)no3)CCCCC2)cc1 [Example 38, 3-(5-(2-(1-phenylcyclohexyl)ethyl)-1,2,4-oxadiazol-3-yl)pyridine]
23 | 1.2 |  |  | Cc1ccsc1-c1noc(CCC2(c3ccccc3)CCCCC2)n1 [Example 40, 3-(3-methyl-2-thienyl)-5-(2-(1-phenylcyclohexyl)ethyl)-1,2,4-oxadiazole]
24 | 12000 | > 62000 |  | c1ccc(-c2noc(C3(c4ccccc4)CCCCC3)n2)cc1 [Example 42, 3-Phenyl-5-(1-phenylcyclohexyl)-1,2,4-oxadiazole, reference compound]
